“Also recorded” adds a separate entry of the source.
Tested on: advanced and/or metastatic cancers
Assay: Antitumor activity
Assay type: in vivo, human
[1] = Breast cancer treated population, 150 mg (n1 = 10)
[2] = Breast cancer treated population, 200 mg (n1 = 11)
[3] = Breast cancer treated population, Total (n1 = 21)
[4] = Overall population, 150 mg (n = 12)
[5] = Overall population, 200 mg (n = 13)
[6] = Overall population, Total (n = 25)

For `CCN1CCN(Cc2ccc(Nc3ncc(F)c(-c4cc(F)c5nc(C)n(C(C)C)c5c4)n3)nc2)CC1` [abemaciclib], the Confirmed responder (150 mg cohort) was 1, the “Patients achieving PR” value (1 patient in each dose cohort) was 2 patients and the “Best overall response: Complete response (CR)” value (“Best overall response … (CR)” below) [1] was 0 n (%). For the same compound, the “Best overall response: Partial response (PR)” value (“Best overall response … (PR)” below) [1] was 1 (10.0) n (%), the “Best overall response: Progressive disease (PD)” value (“Best overall response … (PD)” for short) [1] was 2 (20.0) n (%) and the “Disease control rate (CR+PR+SD)” value [1] was 7 (70.0) n (%). The “Overall response rate (CR+PR)” value [1] was 1 (10.0) n (%), the “Best overall response … (CR)” value [2] was 0 n (%) and the “Best overall response … (PR)” value [2] was 1 (9.1) n (%). For the same compound, the “Best overall response … (PD)” value [2] was 1 (9.1) n (%), the “Disease control rate (CR+PR+SD)” value [2] was 9 (81.8) n (%) and the “Overall response rate (CR+PR)” value [2] was 1 (9.1) n (%). For the same compound, the “Best overall response … (CR)” value [3] was 0 n (%), the “Best overall response … (PR)” value [3] was 2 (9.5) n (%) and the “Best overall response … (PD)” value [3] was 3 (14.3) n (%). For the same compound, the “Disease control rate (CR+PR+SD)” value [3] was 16 (76.2) n (%), the “Overall response rate (CR+PR)” value [3] was 2 (9.5) n (%) and the “Best overall response … (CR)” value [4] was 0 n (%). For the same compound, the “Best overall response … (PR)” value [4] was 1 (8.3) n (%), the “Best overall response … (PD)” value [4] was 2 (16.7) n (%) and the “Disease control rate (CR+PR+SD)” value [4] was 8 (66.7) n (%). For the same compound, the “Overall response rate (CR+PR)” value [4] was 1 (8.3) n (%), the “Best overall response … (CR)” value [5] was 0 n (%) and the “Best overall response … (PR)” value [5] was 1 (7.7) n (%). For the same compound, the “Best overall response … (PD)” value [5] was 2 (15.4) n (%), the “Disease control rate (CR+PR+SD)” value [5] was 9 (69.2) n (%) and the “Overall response rate (CR+PR)” value [5] was 1 (7.7) n (%). For the same compound, the “Best overall response … (CR)” value [6] was 0 n (%), the “Best overall response … (PR)” value [6] was 2 (8.0) n (%) and the “Best overall response … (PD)” value [6] was 4 (16.0) n (%). For the same compound, the “Disease control rate (CR+PR+SD)” value [6] was 17 (68.0) n (%), the “Overall response rate (CR+PR)” value [6] was 2 (8.0) n (%) and the “Complete response (CR)” value (all treated patients (n = 25)) was “No complete response was observed; also recorded: no CR was observed”. The “Disease control rate (DCR)” value (all treated patients (n = 25)) was 68% and the “Patients achieving partial response (PR)” value (all treated patients (n = 25)) was 8%.

From article PMC7935732 (Targeted Oncology, 2021)
